Where two headings read alike, the source gives them in different places.

One may read the Ki as the dissociation constant of the complex between target and ligand, obtained from inhibition or displacement. The term EC50 denotes the concentration needed to bring the measured effect to its halfway point. Read a low EC50 as higher potency in that assay.

The target in assay [1] is T1, human RXFP3 (hRXFP3) (Homo sapiens, UniProt Q9NSD7).
T1 sequence (Q9NSD7 1-469): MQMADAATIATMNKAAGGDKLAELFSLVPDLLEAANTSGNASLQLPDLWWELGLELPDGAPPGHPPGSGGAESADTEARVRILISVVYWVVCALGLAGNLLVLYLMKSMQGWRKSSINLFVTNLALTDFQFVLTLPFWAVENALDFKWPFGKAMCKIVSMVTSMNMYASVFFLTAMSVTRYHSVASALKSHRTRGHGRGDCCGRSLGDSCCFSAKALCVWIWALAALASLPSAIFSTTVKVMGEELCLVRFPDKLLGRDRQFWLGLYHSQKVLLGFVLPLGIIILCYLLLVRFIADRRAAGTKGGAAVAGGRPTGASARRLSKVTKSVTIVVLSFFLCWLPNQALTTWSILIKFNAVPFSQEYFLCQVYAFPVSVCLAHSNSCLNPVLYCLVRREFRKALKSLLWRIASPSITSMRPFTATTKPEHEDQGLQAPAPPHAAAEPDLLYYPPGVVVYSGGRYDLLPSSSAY
Nature of the assay: cell-based. The arrangement: HTS inhibition of forskolin-stimulated cAMP, TR-FRET; % activation relative to R3/I5. The note with it: hRXFP3-CHO; primary screen, single dose; read-out: % activation. The procedure: (§1) The HTS campaign was carried out in white 384-well plates by measuring the inhibition of forskolin-stimulated cAMP accumulation in hRXFP3-CHO cells. Briefly, the positive control (5 nM R3/I5) and negative control (1% DMSO) were located at the 64 wells of the outer four columns on both sides with 32 replicates, respectively. The individual screening compounds were loaded at the center twenty columns with an average final concentration of 10 μM in a single-dose format without replicates. Time-resolved fluorescence resonance energy transfer (TR-FRET) signals were read by an EnVision multilabel plate reader (PerkinElmer). Z’ factor, coefficient of variation (CV) and signal-to-background ratio (S/B) were calculated according to the literature. Positive control was regarded as 100% activation, while negative control represented no activation. Compounds showing greater than 50% activation were considered hits, and secondary screening using the same assay was performed to eliminate false positives. cAMP accumulation assay was performed in hRXFP3-CHO cells at a density of 5 × 10^5 cells/mL. The cells were treated with different concentrations of compounds plus 25 μM forskolin and 500 μM IBMX for 30 min at room temperature (RT). cAMP-d2 conjugate and cryptate conjugate working solutions were then diluted and added to the plates separately. Plates were incubated at RT for 60 min and the fluorescence intensity measured at 620 nm and 665 nm by an EnVision multilabel plate reader. The parental CHO cells were applied to examine off-target effect, while hRXFP4-CHO cells were utilized for selectivity assessment.

In assay [2] the target is T1, human RXFP3 (hRXFP3). As to the kind of experiment: competition binding with europium-labelled H3 B1-22R on RXFP3 CHO-K1 cells. It is filed as cell-based. As to conditions: 5 nM Eu-H3 B1-22R, one-site fit Ki, tracer Kd 26 nM; competitive.
Assay [3] deals with T1, human RXFP3 (hRXFP3). As to the kind of experiment: cell-based. As to conditions: vs 5 nM Eu-H3 B1-22R. Details: species or system CHO-K1; Europium-labelled H3 B1-22R competition binding on CHO-K1 cells stably expressing RXFP3. The procedure:
CHO-K1 cells stably transfected with RXFP3 were plated onto pre-coated poly-L-lysine 96-well plates for the binding assay performed using 5 nM europium (Eu)-H3 B1-22R as previously described with triplicate determinations within assay and a minimum of three independent experiments. Data are presented as means ± SEM. pKi values were calculated using one-site fit Ki and a Kd value of 26 nM for H3 B1-22R [47].

For the next assay, the target named is human RXFP4 (hRXFP4) (Homo sapiens, UniProt Q8TDU9). As to the kind of experiment: cAMP accumulation TR-FRET in hRXFP4-CHO cells. It is filed as cell-based. For orientation: Changes in cAMP serve as a functional read-out for many G protein-coupled receptors.
Sequence of human RXFP4 (hRXFP4) (Q8TDU9 whole entry): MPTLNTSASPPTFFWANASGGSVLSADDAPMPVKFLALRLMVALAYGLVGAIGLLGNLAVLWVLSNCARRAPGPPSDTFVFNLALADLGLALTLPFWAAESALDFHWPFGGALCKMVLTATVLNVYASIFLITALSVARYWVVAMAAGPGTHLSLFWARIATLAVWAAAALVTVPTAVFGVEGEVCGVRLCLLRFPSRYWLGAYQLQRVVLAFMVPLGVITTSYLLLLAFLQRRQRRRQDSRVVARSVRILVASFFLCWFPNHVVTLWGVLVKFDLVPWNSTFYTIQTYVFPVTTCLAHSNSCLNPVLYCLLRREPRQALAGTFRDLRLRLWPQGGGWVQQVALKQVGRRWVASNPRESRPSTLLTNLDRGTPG
The target of assay [4] is T1, human RXFP3 (hRXFP3). As to the kind of experiment: cell-based. The arrangement: TR-FRET inhibition of forskolin-stimulated cAMP accumulation, single-dose primary screen, percent of R3/I5 control. As to conditions: CHO; primary screen, relative to 5 nM R3/I5; read-out: % activation. The procedure:
as §1, with “The cells were treated with different concentrations of compounds plus 25 μM forskolin and 500 μM IBMX for 30 min at room temperature (RT). cAMP-d2 conjugate and cryptate conjugate working solutions were then diluted and added to the plates separately.” left out, “The parental CHO cells were applied to examine off-target effect, while hRXFP4-CHO cells were utilized for selectivity assessment.” left out

Assay [5] has as its target T1, human RXFP3 (hRXFP3). As to the kind of experiment: cAMP accumulation TR-FRET in hRXFP3-CHO cells. It is filed as cell-based.

With `CN(C)c1ccc2nc3ccc(=[N+](C)C)cc-3sc2c1` [WNN0314-G003], the activity at 10 µM at human RXFP3 (hRXFP3) [1] was determined as 51%.

Consider `Cc1sc2[nH]c(=O)c(=O)[nH]c2c1C` [WNN0003-G011], for which, at human RXFP3 (hRXFP3) [1], the activity at 10 µM is 54%.

As to `CC(C)(CCc1ccc(NS(=O)(=O)c2ccccc2)cc1)NC[C@H](O)COc1ccc(O)c(NS(C)(=O)=O)c1` [S-WNN0109-C011], on human RXFP3 (hRXFP3) [2], the pKi entry was “further confirmed the direct binding of WNN0109-C011 and its two enantiomers with RXFP3”. Affinity on human RXFP3 (hRXFP3) [3] was put at a Ki of 91.2 µM.

`O=c1[nH]c2scc(C3CCCCC3)c2[nH]c1=O` [WNN0003-F007]: the activity at 10 µM on human RXFP3 (hRXFP3) [1] is 51%.

On to `CC(C)(CCc1ccc(NS(=O)(=O)c2ccccc2)cc1)NC[C@@H](O)COc1ccc(O)c(NS(C)(=O)=O)c1` [R-WNN0109-C011], for which, at human RXFP3 (hRXFP3) [2], the pKi entry is “further confirmed the direct binding of WNN0109-C011 and its two enantiomers with RXFP3”. This molecule gave a Ki on human RXFP3 (hRXFP3) [3] of 31.6 µM.

For the molecule `O=C(O)Cn1c(=O)c(=O)[nH]c2c(Br)cc(Br)cc21` [WNN0002-F006], the activity at 10 µM on human RXFP3 (hRXFP3) [1] was 73%.

As to `CC(C)(CCc1ccc(NS(=O)(=O)c2ccccc2)cc1)NCC(O)COc1ccc(O)c(NS(C)(=O)=O)c1` (racemic) [WNN0109-C011], the figures for the EC50 at human RXFP4 (hRXFP4) and at human RXFP3 (hRXFP3) [5] were 33.9 µM and 2510 nM, respectively. Further, the activity at 10 µM on human RXFP3 (hRXFP3) [4] came out at 85%. In addition, at human RXFP3 (hRXFP3) [2], the pKi result is “further confirmed the direct binding of WNN0109-C011 and its two enantiomers with RXFP3”. Besides, on human RXFP3 (hRXFP3) [3], affinity was put at a Ki of 41.7 µM.

For the molecule `O=C(CCCCN1CCCCC1)c1ccccc1` [WNN0028-D009], at human RXFP3 (hRXFP3) [1], the activity at 10 µM was 56%.

Consider `O=C1NCCCC1C1=NC(CO)(CO)CO1` (stereo not drawn) [WNN0027-E003], for which the activity at 10 µM on human RXFP3 (hRXFP3) [1] was found to be 53%.

Consider `C[N+](C)=c1ccc2nc3ccc(N)cc3sc-2c1` [WNN0314-F004], for which the activity at 10 µM at human RXFP3 (hRXFP3) [1] was found to be 50%.

In the case of `O=c1[nH]c2ccccc2n(C(c2ccccc2)c2ccccc2)c1=O` [WNN0119-H005], on human RXFP3 (hRXFP3) [1], the activity at 10 µM was 82%.

Take `O=C(c1ccccc1O)N1CCc2nc3ncccc3cc2C1` [WNN0195-H002]: on human RXFP3 (hRXFP3) [1], the activity at 10 µM came to 65%.

For the molecule `O=C(O)C1CCN(CCC=C2c3ccccc3CCc3cc(-c4ccccc4)ccc32)CC1` [WNN0063-E009], the activity at 10 µM on human RXFP3 (hRXFP3) [1] worked out at 130%.

`CSc1nccc(-c2ccc(Br)s2)n1` [WNN0196-B004]: the activity at 10 µM on human RXFP3 (hRXFP3) [1] is 78%.

For `Cc1csc2[nH]c(=O)c(=O)n(C)c12` [WNN0004-D007], the activity at 10 µM at human RXFP3 (hRXFP3) [1] was 57%.

Turning to `Nc1ccc2sc3[nH]c(=O)c(=O)[nH]c3c2c1` [WNN0003-B006], the activity at 10 µM on human RXFP3 (hRXFP3) [1] turned out to be 54%.

In the case of `O=C(O)C1CCCN(CCC=C2c3ccccc3CCc3cc(-c4ccccc4)ccc32)C1` (stereo not drawn) [WNN0063-E008], the activity at 10 µM on human RXFP3 (hRXFP3) [1] turned out to be 68%.

In the case of `CS/C(=N/C#N)Nc1ccc2c(c1)OCCO2` [WNN0027-G008], the activity at 10 µM on human RXFP3 (hRXFP3) [1] was determined as 56%.
